According to patent US20240165085A1, “ORAL FELINE FEED AND METHODS FOR CONTROLLING TICK INFESTATIONS IN A FELINE” (priority 2021, published 2024):

Tests used:
[1] = test system: Dermacentor variabilis; experiment: Example 1: efficacy of isoxazoline per os in cats against Dermacentor variabilis (attached tick comb counts); assay type: in vivo
Source text: Efficacy of Isoxazoline Administered per os, i.e. by mouth, to Cats for the Treatment and Control of Dermacentor variabilis.
Methods: A pool of 14 cats are to be preliminarily infested with ˜50 unfed adult D. variabilis ticks in order to produce cats that can suitably sustain a reliable infestation rate, defined as approximately 25% attached ticks being live at the end of a 48-hour period. The 12 cats with the highest live attached tick counts are to be selected for inclusion in the study. The cats are to be divided into a control group and a treatment group with 6 cats in each group.
(§1) The cats are to be housed individually during the study period and are to be fed a commercial dry cat food ration with ad libitum access to water.
(§2) Each cat in the treatment group is to receive by mouth, preferably in combination with feed, a liquid formulation of isoxazoline. The dosage of 1.125 mg/kg is to be administered to the cats on each of days 0-29.
(§3) Cats in the control group are not to receive isoxazoline or any other tick control treatment. Each cat in the treatment group is to be offered its daily ration (dry food) and the individual doses of liquid formulation are to be administered after the individual cat has eaten at least 25% of its total daily ration. After receiving the dose of isoxazoline, the cats are to be allowed to continue eating. This mimics incorporating the isoxazoline in feed. […]

[2] = Example 1: average plasma concentration of isoxazoline in cats, daily oral dosing; assay type: in vivo, cat; conditions: 1.125 mg/kg daily
Procedure: as §2
Using the same study method as described above, blood is to be drawn at 72, 168, 336, 504, 720 and 888 hours after the initial dose of isoxazoline is administered. The average concentration of isoxazoline in the blood can then be determined.

[3] = Example 4: plasma concentration of isoxazoline in cats given medicated feed; assay type: in vivo, cat; conditions: medicated feed dosed at 1.5 mg/kg, five different feed formulations, Day 0 to Day 30
Procedure: Plasma Concentration of Isoxazoline in Cats when Isoxazoline is Administered in a Medicated Feed Dosed at 1.5 mg/kg of the Cat's Weight.
Methods: A pool of 30 cats are to be assigned to 5 groups of 6 cats per group by weight to minimize variation between and within the groups. Each group will be given a different feed formulation containing isoxazoline and the blood level of isoxazoline over the one month period following the single daily dose will be determined.
(§4) The cats are to be housed individually during the study period and are to have ad libitum access to water.
There is to be an initial acclimation period of at least 4 days during which cats are to be transitioned from a standard certified commercial cat feed to an unmedicated version of the daily cat feed. During the acclimation period, the cats are to be allowed 15 minutes/day to consume the feed.
Each medicated feed formulation should be able to deliver approximately 14.1 g/kg of daily feed containing isoxazoline. The amount of medicated feed for each cat is to be determined according to the most recent body weight of the cat prior to the first day (Day 0) of the study. Each medicated feed is to be provided for 15 minutes daily from Day 0 up to and including Day 30. Any uneaten medicated feed remaining after each daily 15 minute timed offering period is to be removed, weighed and the amount recorded. […]

[4] = test system: Dermacentor variabilis; experiment: Example 5: efficacy of isoxazoline in medicated feed in cats against Dermacentor variabilis; assay type: in vivo; conditions: 1 mg/kg, days 0-29, by day 14
Procedure: (§5) Efficacy of Isoxazoline when Isoxazoline is Administered in a Medicated Feed for the Treatment and Control of Dermacentor variabilis.
Methods: A pool of 24 cats are to be preliminarily infested with ˜50 unfed adult D. variabilis ticks in order to produce cats that can suitably sustain a reliable infestation rate, defined as approximately 25% of attached ticks being live at the end of a 48-hour period. The 18 cats with the highest live attached tick counts are to be randomly assigned to a single control group (Group 1) and 2 different medicated feed treatment groups (Groups 2 and 3) with 6 cats per group. The remaining 6 cats are to be assigned to a final medicated feed treatment group (Group 4).
as §4
(§6) Each cat in a treatment group (Groups 2-4) is to receive a medicated daily feed from study days 0-29. Each medicated daily feed (Groups 2-4) is to be offered to the cats for 1 hour on each of days 0-29 according to test groups in TABLE 3.
Cats in the control group are not to receive isoxazoline or any other tick control treatment. […]

[5] = Example 5: plasma concentration of isoxazoline in cats given medicated daily feed; assay type: in vivo, cat
Procedure: as §6
Using the same study method as described above, blood is to be drawn at day 0 (day of the first administration of medicated feed) and days 2, 4, 7, 10, 14, 21 and 30 after the initial dose of isoxazoline is administered on day 0. The average concentration of isoxazoline in the blood for different dosage levels can then be determined.

[6] = test system: Dermacentor variabilis; experiment: Example 6: efficacy of Mivorilaner in medicated feed in cats against Dermacentor variabilis (FIG. 1); assay type: in vivo; conditions: days 0-29, within 16 days
Procedure: FIG. 1. A graph of the arithmetic mean efficacy for treatment Group 2 (stars) and Group 3 (horizontal hash). Percent efficacy=[AM fleas CONTROL−AM fleas TREATED]/AM fleas CONTROL. Efficacy measured at 2, 16, 27, 30, and 37 days after Initial Treatment, with either 0.75 mg of Mivorilaner/kg (Group 2) or 1.5 mg of Mivorilaner/kg (Group 3).
as §5
Methods: A pool of cats are to be preliminarily infested with ˜100 unfed adult C. felis fleas in order to produce cats that can suitably sustain a reliable infestation rate, defined as approximately 50% retention of live fleas at the end of a 48-hour period. The cats with the highest live flea counts are to be randomly assigned to a single control group (Group 1) and 2 medicated feed treatment groups with 4 cats per group. The cats in groups 2 and 3 will receive Mivorilaner.
as §4
Each cat in a treatment group (Groups 2 and 3) is to receive a medicated daily feed from study days 0-29 according to TABLE 4.
The cats are to be fasted overnight prior to each daily treatment. […]

[7] = test system: Dermacentor variabilis; experiment: Example 3: efficacy of afoxolaner and fluralaner liquid formulations per os in cats against Dermacentor variabilis; assay type: in vivo; conditions: treatment group 2, 0.075 mg/kg daily (Days 0-29), liquid formulation
Source text: Efficacy of Various Formulations of Isoxazoline Administered per os, i.e. by mouth, to Cats for the Treatment and Control of Dermacentor variabilis.
Methods: A pool of 36 cats are to be preliminarily infested with ˜50 unfed adult D. variabilis ticks in order to produce cats that can suitably sustain a reliable infestation rate, defined as approximately 25% of attached ticks being live at the end of a 48-hour period. The 30 cats with the highest live attached tick counts are to be selected for inclusion in the study. The cats are to be randomly assigned to a single control group and 4 treatment groups with 6 cats per treatment group.
as §1
Each cat in a treatment group (test groups 2-5) is to receive by mouth, preferably in combination with feed, a liquid formulation of isoxazoline. The dosage is to be administered to the cats on each of days 0-29 according to TABLE 2.
as §3, with “ration.” for “ration. After receiving the dose of isoxazoline, the cats are to be allowed to continue eating. This mimics incorporating the isoxazoline in feed.”

Compound | reduction in attached tick counts over the control group ([1]; 1.125 mg/kg by mouth daily days 0-29, within 7 days) | reduction in attached tick counts over the control group ([1]; 1.125 mg/kg by mouth daily days 0-29, within 14 days) | average plasma concentration ([2]; day 3) | average plasma concentration ([2]; day 21) | average plasma concentration ([2]; day 37, approximately 8 days after the final dose) | mean plasma concentrations [3] | efficacy ([4]; treatment group 2, medicated daily feed) | efficacy ([4]; treatment group 3, medicated daily feed) | plasma concentrations relative to treatment groups 2 and 3 ([5]; treatment group 4, 3 mg/kg daily, versus groups 2 and 3, 1 mg/kg daily) | plasma concentrations, comparison of feed formulations ([5]; treatment groups 2 and 3, 1 mg/kg daily, different feed formulations) | efficacy (percent reduction in attached live and moribund tick counts) ([6]; treatment group 2, 0.75 mg/kg daily in wet cat food) | efficacy (percent reduction in attached live and moribund tick counts) ([6]; treatment group 3, 1.5 mg/kg daily in wet cat food) | efficacy ([7]; by day 14) | efficacy ([7]; by day 21)
O=C(CNC(=O)c1sc(C2=NO[C@@](c3cc(Cl)c(F)c(Cl)c3)(C(F)(F)F)C2)c2c1CCC2)NCC(F)F [mivorilaner, 3-[(5S)-5-(3,5-dichloro-4-fluorophenyl)-5-(trifluoromethyl)-4,5-dihydroisoxazol-3-yl]-N-[2-[(2,2-difluoroethyl)amino]-2-oxoethyl]-5,6-dihydro-4H-cyclopenta[c]thiophene-1-carboxamide] | at least 60% | 90% | about 1011 ng/mL | about 4088 | about 3025 ng/mL | consistent with those achieved in Examples 1 and 2 | greater than 95% | greater than 95% | 2.5-4 times higher | consistent between treatment groups 2 and 3 | 100% | 100% |  | 
O=C(CNC(=O)c1ccc(C2=NOC(c3cc(Cl)cc(C(F)(F)F)c3)(C(F)(F)F)C2)c2ccccc12)NCC(F)(F)F (centres unmarked) [Afoxolaner, 4-{5-[3-chloro-5-(trifluoromethyl)phenyl]-5-(trifluoromethyl)-4,5-dihydroisoxazol-3-yl}-N-{2-oxo-2-[(2,2,2-trifluoroethyl)amino]ethyl}naphthalene-1-carboxamide] |  |  |  |  |  |  |  |  |  |  |  |  | greater than 80% | greater than 90%
